For 40 compounds, IC50 results are on record in patent US12336981B2, “Compounds and compositions for the inhibition of NAMPT” (Valo Health, Inc., priority 2010, dated 2025).

Like-named read-outs stand apart in the source and are kept apart here.

One assay addresses T1, NAMPT (Homo sapiens, UniProt P43490).
T1 construct: His tag; host or cells: E. coli
Nature of the assay: Biochemical inhibition assay: NAMPT enzymatic reaction, NMN quantified by mass spectrometry. The following applies: read-out: Biochem IC50. The gist of the method:
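Inhibition of E. coli-expressed His-tagged human NAMPT, measured as NMN formation by mass spectrometry after a 30 min room-temperature reaction containing 1 μM NAM, 100 μM PRPP and 2.5 mM ATP.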

A further assay concerns A2780 cells. Nature of the assay: In-vitro cell proliferation assay (SRB), A2780 cells. The class given is cell-based. Conditions: Homo sapiens, A2780, 72 h, A2780 cells, 72 hours, read-out: A2780 IC50. In a few lines: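 Growth inhibition was derived from background-corrected SRB absorbance (570 nm), measured on cells fixed in 6% TCA after three days of compound treatment under 5% CO2 at 37° C.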

T1 sequence (P43490 whole entry): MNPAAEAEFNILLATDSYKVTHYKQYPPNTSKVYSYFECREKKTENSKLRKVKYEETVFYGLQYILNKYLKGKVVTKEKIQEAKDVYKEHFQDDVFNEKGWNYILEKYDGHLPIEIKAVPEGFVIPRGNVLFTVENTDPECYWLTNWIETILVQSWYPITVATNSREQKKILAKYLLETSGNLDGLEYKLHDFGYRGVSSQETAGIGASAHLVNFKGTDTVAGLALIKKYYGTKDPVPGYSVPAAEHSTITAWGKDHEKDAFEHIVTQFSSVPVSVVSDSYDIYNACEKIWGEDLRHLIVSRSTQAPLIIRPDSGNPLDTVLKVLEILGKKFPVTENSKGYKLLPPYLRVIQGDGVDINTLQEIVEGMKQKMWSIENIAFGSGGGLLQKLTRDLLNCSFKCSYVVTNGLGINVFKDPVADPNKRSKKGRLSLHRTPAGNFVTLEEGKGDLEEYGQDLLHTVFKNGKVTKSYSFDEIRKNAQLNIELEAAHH

Take `COc1ccc(S(=O)(=O)c2ccc(CNC(=O)c3ccc4nccn4c3)cc2)c(OC)n1` [N-{[4-(2,6-dimethoxypyridine-3-sulfonyl)phenyl]methyl}imidazo[1,2-a]pyridine-6-carboxamide]: the IC50 stood at 43.3 nM on NAMPT (NAMPT enzymatic assay) and 9.2 nM in the assay with A2780 cells (SRB).
Regarding `O=C(NCc1ccc(S(=O)(=O)c2ccccc2CN2CCOCC2)cc1)c1cc2ccncc2s1` [N-[(4-{[2-(morpholin-4-ylmethyl)benzene]sulfonyl}phenyl)methyl]thieno[2,3-c]pyridine-2-carboxamide], the 50% inhibitory concentration (IC50) at NAMPT (NAMPT enzymatic reaction) is 13 nM; in the assay with A2780 cells (SRB assay), 3.6 nM.
For the compound `O=C(NCc1ccc(S(=O)(=O)c2cc(F)cc(N3CCCC3)c2)cc1)c1cc2ccncc2s1`, the half-inhibitory concentration (IC50) was 1.2 nM at NAMPT (NAMPT enzymatic assay) and 2.7 nM in the assay with A2780 cells (SRB).
For the compound `Cc1ccc(S(=O)(=O)c2ccc(CNC(=O)c3cc4ccncc4s3)cc2)s1` [N-{[4-(5-methylthiophene-2-sulfonyl)phenyl]methyl}thieno[2,3-c]pyridine-2-carboxamide], the half-maximal inhibitory concentration (IC50) at NAMPT (NAMPT enzymatic reaction) is 5 nM; with A2780 cells (SRB assay), 7.7 nM.
In the case of `COc1c(F)cccc1S(=O)(=O)c1ccc(CNC(=O)c2cnc3nccn3c2)cc1`, the 50% inhibitory concentration (IC50) at NAMPT (NAMPT enzymatic reaction) is 28.9 nM; in the assay on A2780 cells (SRB) it was 100 to 1000 nM.
On to `Cc1cc(C(F)(F)F)ccc1S(=O)(=O)c1ccc(CNC(=O)c2cnc3[nH]ncc3c2)cc1` [N-[(4-{[2-methyl-4-(trifluoromethyl)benzene]sulfonyl}phenyl)methyl]-1H-pyrazolo[3,4-b]pyridine-5-carboxamide], for which the IC50 at NAMPT (NAMPT enzymatic assay) is 100 to 1000 nM; with A2780 cells (SRB), 74.6 nM.
As for `COc1cc(S(=O)(=O)c2ccc(CNC(=O)c3cnc4nccn4c3)cc2)ccc1F`, the IC50 worked out at 4.9 nM on NAMPT (NAMPT enzymatic reaction) and 10.8 nM with A2780 cells (SRB).
Consider `CCCOc1ccccc1NS(=O)(=O)c1ccc(CNC(=O)c2cc3cnccc3[nH]2)cc1` [N-({4-[(2-propoxyphenyl)sulfamoyl]phenyl}methyl)-1H-pyrrolo[3,2-c]pyridine-2-carboxamide], for which the figures for the half-inhibitory concentration (IC50) at NAMPT (NAMPT enzymatic reaction) and in the assay with A2780 cells (SRB assay) were 52 nM and 100 nM, respectively.
For `O=C(NCc1ccc(S(=O)(=O)N2CC3CCC(C2)O3)cc1)c1cc2ccncc2s1` [N-[(4-{8-oxa-3-azabicyclo[3.2.1]octane-3-sulfonyl}phenyl)methyl]thieno[2,3-c]pyridine-2-carboxamide] the same measures were 15 nM and 3 nM.
The like results for `COc1cccc(OC(C)C)c1S(=O)(=O)c1ccc(CNC(=O)c2cc3cnccc3[nH]2)cc1` [N-[(4-{[2-methoxy-6-(propan-2-yloxy)benzene]sulfonyl}phenyl)methyl]-1H-pyrrolo[3,2-c]pyridine-2-carboxamide] were, in that order, 36 nM and 22 nM.
Take `Cc1ccc(Cl)c(S(=O)(=O)c2ccc(CNC(=O)c3cc4ccncc4s3)cc2)c1F`: the concentration for half-maximal inhibition (IC50) on NAMPT (NAMPT enzymatic assay) turned out to be 7.7 nM; with A2780 cells (SRB), 6.8 nM.
The like results for `COc1cccc(S(=O)(=O)c2ccc(CNC(=O)c3ccc4nccn4c3)cc2)n1` [N-{[4-(6-methoxypyridine-2-sulfonyl)phenyl]methyl}imidazo[1,2-a]pyridine-6-carboxamide] were, in that order, 5.2 nM and 1.3 nM.
Consider `CCCOc1cccc(F)c1S(=O)(=O)c1ccc(CNC(=O)c2cc3ccncc3s2)cc1`, for which the values for the IC50 at NAMPT (NAMPT enzymatic reaction) and with A2780 cells (SRB) were 11.5 nM and 29.3 nM, respectively.
For the compound `Cc1cc(S(=O)(=O)c2ccc(CNC(=O)c3cc4ccncc4o3)cc2)c(C)cc1F`, the values for the IC50 on NAMPT (NAMPT enzymatic reaction) and with A2780 cells (SRB) were 17.6 nM and 24.2 nM, respectively.
Take `COc1ccc(S(=O)(=O)c2ccc(CNC(=O)c3cc4ccncc4s3)cc2)cc1F` [N-({4-[(3-fluoro-4-methoxybenzene)sulfonyl]phenyl}methyl)thieno[2,3-c]pyridine-2-carboxamide]: the IC50 at NAMPT (NAMPT enzymatic reaction) came to 5 nM; in the assay with A2780 cells (SRB assay), 2.5 nM.
Turning to `CC(=O)c1cccc(S(=O)(=O)c2ccc(CNC(=O)c3cc4ccncc4o3)cc2)c1` [N-({4-[(3-acetylbenzene)sulfonyl]phenyl}methyl)furo[2,3-c]pyridine-2-carboxamide], the IC50 on NAMPT (NAMPT enzymatic reaction) was determined as 17.6 nM; with A2780 cells (SRB), 8 nM.
Turning to `O=C(NCc1ccc(S(=O)(=O)Nc2ccccc2CO)cc1)c1cc2cnccc2[nH]1` [N-[(4-{[2-(hydroxymethyl)phenyl]sulfamoyl}phenyl)methyl]-1H-pyrrolo[3,2-c]pyridine-2-carboxamide], the 50% inhibitory concentration (IC50) at NAMPT (NAMPT enzymatic reaction) worked out at 30 nM; in the assay on A2780 cells (SRB assay) it was 6 nM.
The like results for `COc1ccccc1S(=O)(=O)c1ccc(CNC(=O)c2cc3cnccc3[nH]2)cc1` [N-({4-[(2-methoxybenzene)sulfonyl]phenyl}methyl)-1H-pyrrolo[3,2-c]pyridine-2-carboxamide] were, in that order, 9 nM and 7 nM.
For the compound `COc1ccccc1S(=O)(=O)c1ccc(CNC(=O)c2ccc3nccn3c2)cc1` [N-({4-[(2-methoxybenzene)sulfonyl]phenyl}methyl)imidazo[1,2-a]pyridine-6-carboxamide], the IC50 was determined as 26.5 nM on NAMPT (NAMPT enzymatic reaction) and 15.3 nM in the assay on A2780 cells (SRB).
For `COc1ccc(S(=O)(=O)c2ccc(CNC(=O)c3cc4ccncc4o3)cc2)cc1` [N-({4-[(4-methoxybenzene)sulfonyl]phenyl}methyl)furo[2,3-c]pyridine-2-carboxamide] the same measures were 5.5 nM and 6 nM.
As to `CCCCOc1ccc(S(=O)(=O)c2ccc(CNC(=O)c3ccc4nccn4c3)cc2)cc1Cl`, the concentration for half-maximal inhibition (IC50) is 4.1 nM at NAMPT (NAMPT enzymatic reaction) and 7.6 nM in the assay with A2780 cells (SRB).
Regarding `CC(C)NC(=O)c1cccc(S(=O)(=O)c2ccc(CNC(=O)c3ccc4nccn4c3)cc2)c1`, the half-maximal inhibitory concentration (IC50) is 22.2 nM at NAMPT (NAMPT enzymatic assay) and 50.4 nM with A2780 cells (SRB).
Turning to `CCOc1cc(Cl)ccc1S(=O)(=O)c1ccc(CNC(=O)c2cnc3nccn3c2)cc1`, the IC50 came out at 2 nM on NAMPT (NAMPT enzymatic reaction) and 4.5 nM with A2780 cells (SRB).
On to `O=C(NCc1ccc(S(=O)(=O)c2ccc(Cl)c(C(F)(F)F)c2)cc1)c1cnc2nccn2c1`, for which the half-inhibitory concentration (IC50) came to 2.8 nM at NAMPT (NAMPT enzymatic assay) and 4.3 nM in the assay on A2780 cells (SRB).
`Cc1c(Cl)cccc1S(=O)(=O)c1ccc(CNC(=O)c2cc3ccncc3o2)cc1`: the IC50 at NAMPT (NAMPT enzymatic reaction) came to 2.6 nM; with A2780 cells (SRB), 1.6 nM.
For `CC(C)COc1ccc(S(=O)(=O)c2ccc(CNC(=O)c3cc4ccncc4o3)cc2)cc1`, the half-maximal inhibitory concentration (IC50) was found to be 9.4 nM at NAMPT (NAMPT enzymatic assay) and 11.6 nM in the assay on A2780 cells (SRB).
With `O=C(NCc1ccc(S(=O)(=O)c2ccc(-c3ccccc3)cc2)cc1)c1cc2ccncc2s1`, the IC50 on NAMPT (NAMPT enzymatic reaction) turned out to be 3 nM; in the assay on A2780 cells (SRB), 10.6 nM.
In the case of `O=C(NCc1ccc(S(=O)(=O)c2ccc(F)c(C(F)(F)F)c2)cc1)c1cc2ccncc2s1`, the results for the 50% inhibitory concentration (IC50) on NAMPT (NAMPT enzymatic assay) and with A2780 cells (SRB) were 4 nM and 2.8 nM, respectively.
For `COc1ccc(C)cc1S(=O)(=O)c1ccc(CNC(=O)c2cc3cnccc3[nH]2)cc1` [N-({4-[(2-methoxy-5-methylbenzene)sulfonyl]phenyl}methyl)-1H-pyrrolo[3,2-c]pyridine-2-carboxamide], the IC50 at NAMPT (NAMPT enzymatic reaction) came out at 12 nM; in the assay with A2780 cells (SRB assay), 3 nM.
Take `Cc1cncc(S(=O)(=O)c2ccc(CNC(=O)c3cnc4nccn4c3)cc2)c1` [N-{[4-(5-methylpyridine-3-sulfonyl)phenyl]methyl}imidazo[1,2-a]pyrimidine-6-carboxamide]: the half-inhibitory concentration (IC50) on NAMPT (NAMPT enzymatic assay) stood at 2.2 nM; in the assay with A2780 cells (SRB), 12.4 nM.
Regarding `COc1ccc(Cl)cc1S(=O)(=O)c1ccc(CNC(=O)c2cnc3[nH]ncc3c2)cc1`, the results for the IC50 on NAMPT (NAMPT enzymatic reaction) and with A2780 cells (SRB) were 49.2 nM and 8.1 nM, respectively.
`COc1ccc(C(C)=O)cc1S(=O)(=O)c1ccc(CNC(=O)c2cc3cnccc3[nH]2)cc1` [N-({4-[(5-acetyl-2-methoxybenzene)sulfonyl]phenyl}methyl)-1H-pyrrolo[3,2-c]pyridine-2-carboxamide]: the concentration for half-maximal inhibition (IC50) on NAMPT (NAMPT enzymatic reaction) came to 20 nM; in the assay on A2780 cells (SRB assay) it was 6 nM.
With `COc1cc(C)cc(S(=O)(=O)c2ccc(CNC(=O)c3cc4cnccc4[nH]3)cc2)c1OC` [N-({4-[(2,3-dimethoxy-5-methylbenzene)sulfonyl]phenyl}methyl)-1H-pyrrolo[3,2-c]pyridine-2-carboxamide], the 50% inhibitory concentration (IC50) at NAMPT (NAMPT enzymatic assay) was 10 nM; in the assay on A2780 cells (SRB), 2 nM.
For `CCN(C)c1ncc(S(=O)(=O)c2ccc(CNC(=O)c3cc4ccncc4s3)cc2)s1` [N-[(4-{2-[ethyl(methyl)amino]-1,3-thiazole-5-sulfonyl}phenyl)methyl]thieno[2,3-c]pyridine-2-carboxamide] the same measures were 2.9 nM and 1.2 nM.
The like results for `O=C(NCc1ccc(S(=O)(=O)c2ccccc2C(F)(F)F)cc1)c1ccc2nccn2c1` [N-[(4-{[2-(trifluoromethyl)benzene]sulfonyl}phenyl)methyl]imidazo[1,2-a]pyridine-6-carboxamide] were, in that order, 34.1 nM and 57.9 nM.
Turning to `COc1ccc(S(=O)(=O)c2ccc(CNC(=O)c3cc4cnccc4[nH]3)cc2)c(C)c1` [N-({4-[(4-methoxy-2-methylbenzene)sulfonyl]phenyl}methyl)-1H-pyrrolo[3,2-c]pyridine-2-carboxamide], the half-maximal inhibitory concentration (IC50) on NAMPT (NAMPT enzymatic reaction) and with A2780 cells (SRB assay) was 24 nM each time.
On to `COc1cc(Cl)ccc1S(=O)(=O)c1ccc(CNC(=O)c2ccc3nccn3c2)cc1` [N-({4-[(4-chloro-2-methoxybenzene)sulfonyl]phenyl}methyl)imidazo[1,2-a]pyridine-6-carboxamide], for which the half-maximal inhibitory concentration (IC50) is 18.7 nM at NAMPT (NAMPT enzymatic reaction) and 12.6 nM in the assay on A2780 cells (SRB).
For `O=C(NCc1ccc(S(=O)(=O)c2cc(C(F)(F)F)ccc2Cl)cc1)c1cnc2nccn2c1`, the IC50 at NAMPT (NAMPT enzymatic assay) was determined as 7 nM; with A2780 cells (SRB) it was 14.1 nM.
For `CSc1ccc(S(=O)(=O)c2ccc(CNC(=O)c3ccc4nccn4c3)cc2)cc1F` the same measures were 5.6 nM and 2.7 nM.
For `COc1cc(-n2cccn2)ccc1S(=O)(=O)c1ccc(CNC(=O)c2cc3ccncc3o2)cc1` the same measures were 6.5 nM and 6 nM.
